Several values for one entry are separate records, joined by “and”; a condition that tells them apart may be missing. Equal values may be shown once.
Columns and labels:
293T cells [1] = assay: Fluorescent detection of Fluc-mRNA (cell transfection efficiency of LNP formulations); assay type: cell-based
Outline: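 Transfection read-out: IVIS imaging after […], 24 h after adding LNPs (lipid molar ratio 49:10:39.5:1.5 cationic/neutral/structured/polymer-lipid; […] Fluc-mRNA). Adherent 293T cells were seeded overnight at 10,000 per well beforehand.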

female BALB/C mice = assay: Live imaging in mice: protein expression of Fluc-mRNA delivered by LNP formulations; assay type: in vivo; conditions: for average radiation intensity, times that of ALC-0315: comparator ALC-0315; for average radiation intensity, times that of HHMA: comparator HHMA; for average radiation intensity, times that of SM-102: comparator SM-102; for expression of mRNA in mice, times that of YK-302: comparator YK-302; for expression amount, times that of YK-309: comparator YK-309; for expression amount, times that of YK-313: comparator YK-313; for expression amount, times that of YK-321: comparator YK-321; for average radiation intensity, times that of compound 21: comparator compound 21; for average radiation intensity, times that of compound 23: comparator compound 23
Outline: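 Female BALB/C mice (4-6 weeks, 17-19 g) received LNP-formulated Fluc-mRNA […] intramuscularly. At 6 h, 24 h, 48 h and 7 d, luciferase substrate given intraperitoneally, and after 5 min average radiance measured by IVIS whole-body imaging.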

293T cells [2] = assay: Cell survival rate determination (CCK-8); assay type: cell-based
Outline: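 Readout was CCK-8 absorbance (450 nm, 1 h) taken after a 24 h exposure of overnight-adhered 293T cells (10,000 per well, 96-well) to Lipofectamine 3000 or to LNPs carrying Fluc-mRNA, lipid molar ratio 49:10:39.5:1.5 cationic/neutral/structured/polymer-conjugated.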

[3] = Particle size and polydispersity index (PDI) of lipid nanoparticles by dynamic light scattering; assay type: physicochemical; conditions: LNP formulation prepared from the cationic lipid, 25° C.
Method: The particle size and polydispersity index (PDI) were determined by dynamic light scattering using Malvern laser particle size analyzer.
10 μL of the liposome solution was weighed, diluted to 1 mL with RNase-free deionized water, and added to the sample pool. Each sample was measured in triplicate. The measurement conditions were: […] scattering angle, and 25° C.

liver = assay: Distribution of liposomes in mice: protein expression in the liver (live imaging); assay type: in vivo; conditions: at 6 h, intramuscular injection
Method: The LNP formulation containing […] Fluc-mRNA was injected intramuscularly into female BALB/C mice aged 4 to 6 weeks old and weighed 17 to 19 g, and the mice were intraperitoneally injected with fluorescent imaging substrate at specific time points after administration (6 h, 24 h, 48 h and 7 d), where the mice were free to move for 5 minutes, and then the average radiation intensity (corresponding to fluorescence expression intensity) of the protein expression of the mRNA carried by the LNP in the mice was detected by the IVIS Spectrum small animal live imaging device.
At 24 h, the LNP formulations prepared from all compounds had been metabolized in the liver and had no protein expression.

## CCCCCCCCCCCOC(=O)CCCCCN(CCCC(=O)OCCCC(CCCCCCCCCC)CCCCCCCCCC)C[C@H](O)CN(CC)CCO [YK-310]
293T cells [1]; LNP formulation of Fluc-mRNA, 96-well plate, 24 hours
  Relative light unit (RLU): 25797040 RLU
293T cells [1]; RLU of YK-305 / RLU of the lipid of the line
  Multiples (YK-305): 1.06
293T cells [1]; RLU of YK-310 / RLU of the lipid of the line
  Multiples (YK-310): 1.00
293T cells [1]; RLU of YK-312 / RLU of the lipid of the line
  Multiples (YK-312): 0.78
293T cells [1]; RLU of YK-318 / RLU of the lipid of the line, Tables 5, 7, 11
  Multiples (YK-318): 0.43
293T cells [1]; RLU of YK-319 / RLU of the lipid of the line, Tables 5, 7, 11
  Multiples (YK-319): 0.95
293T cells [1]; RLU of the lipid / RLU of SM-102, times that of SM-102
  Ratio relative to SM-102: 16.08
293T cells [1]; comparator ALC-0315
  cell transfection efficiency, times that of ALC-0315: 12.69 times
293T cells [1]; comparator HHMA
  cell transfection efficiency, times that of HHMA: 12.86 times
293T cells [1]; comparator Lipofectamine 3000
  cell transfection efficiency, times that of Lipofectamine 3000: 21.76 times
293T cells [1]; comparator YK-009
  cell transfection efficiency, times that of YK-009: 5.04 times
293T cells [1]; comparator YK-301
  cell transfection efficiency, times that of YK-301: 30.62 times
293T cells [1]; comparator YK-302
  cell transfection efficiency, times that of YK-302: 928.69 times
293T cells [1]; comparator YK-303
  cell transfection efficiency, times that of YK-303: 41.19 times
293T cells [1]; comparator YK-304
  cell transfection efficiency, times that of YK-304: ~1200 times and 1247.08 times
293T cells [1]; comparator YK-306
  cell transfection efficiency, times that of YK-306: 11.74 times
293T cells [1]; comparator YK-307
  cell transfection efficiency, times that of YK-307: 5.66 times
293T cells [1]; comparator YK-308
  cell transfection efficiency, times that of YK-308: 5.12 times
293T cells [1]; comparator YK-309
  cell transfection efficiency, times that of YK-309: ~200 times and 205.77 times
293T cells [1]; comparator YK-311
  cell transfection efficiency, times that of YK-311: 13.14 times
293T cells [1]; comparator YK-313
  cell transfection efficiency, times that of YK-313: 29.77 times
293T cells [1]; comparator YK-314
  cell transfection efficiency, times that of YK-314: 47.12 times
293T cells [1]; comparator YK-315
  cell transfection efficiency, times that of YK-315: 16.25 times
293T cells [1]; comparator YK-316
  cell transfection efficiency, times that of YK-316: 5.36 times
293T cells [1]; comparator YK-317
  cell transfection efficiency, times that of YK-317: 7.16 times
293T cells [1]; comparator YK-320
  cell transfection efficiency, times that of YK-320: 9.54 times
293T cells [1]; comparator YK-321
  cell transfection efficiency, times that of YK-321: 18.38 times
293T cells [1]; comparator compound 21
  cell transfection efficiency, times that of compound 21: 18.01 times
293T cells [1]; comparator compound 23
  cell transfection efficiency, times that of compound 23: 19.02 times
Female BALB/C mice; 6 h
  average radiation intensity, times that of ALC-0315: 10.56 times
  average radiation intensity, times that of HHMA: 14.02 times
  average radiation intensity, times that of SM-102: 13.01 times
  expression of mRNA in mice, times that of YK-302: 625.87 times
  expression amount, times that of YK-309: 138.93 times
  expression amount, times that of YK-313: 20.64 times
  expression amount, times that of YK-321: 17.70 times
  average radiation intensity, times that of compound 21: 14.95 times
  average radiation intensity, times that of compound 23: 15.48 times
Female BALB/C mice; 6 h after intramuscular injection
  average radiation intensity: 9125240
Female BALB/C mice; 24 h
  average radiation intensity, times that of ALC-0315: 15.50 times
  average radiation intensity, times that of HHMA: 24.61 times
  average radiation intensity, times that of SM-102: 24.51 times
  expression of mRNA in mice, times that of YK-302: 746.29 times
  expression amount, times that of YK-309: 175.52 times
  expression amount, times that of YK-313: 28.27 times
  expression amount, times that of YK-321: 29.16 times and ~29 times
  average radiation intensity, times that of compound 21: 26.88 times
  average radiation intensity, times that of compound 23: 28.24 times
Female BALB/C mice; 24 h after intramuscular injection
  average radiation intensity: 2952310
Female BALB/C mice; 48 h
  average radiation intensity, times that of ALC-0315: 24.64 times
  average radiation intensity, times that of HHMA: 30.13 times
  average radiation intensity, times that of SM-102: 30.14 times
  expression of mRNA in mice, times that of YK-302: 957.07 times
  expression amount, times that of YK-309: 149.75 times
  expression amount, times that of YK-313: 38.38 times
  expression amount, times that of YK-321: 26.83 times
  average radiation intensity, times that of compound 21: 31.67 times
  average radiation intensity, times that of compound 23: 29.62 times
Female BALB/C mice; 48 h after intramuscular injection
  average radiation intensity: 981000
Female BALB/C mice; 7 d
  average radiation intensity, times that of ALC-0315: 16.67 times
  average radiation intensity, times that of HHMA: 20.01 times
  average radiation intensity, times that of SM-102: 17.74 times
  expression of mRNA in mice, times that of YK-302: 305.89 times
  expression amount, times that of YK-309: 93.52 times
  expression amount, times that of YK-313: 36.31 times
  expression amount, times that of YK-321: 17.84 times and ~17 times
  average radiation intensity, times that of compound 21: 18.23 times
  average radiation intensity, times that of compound 23: 18.82 times
Female BALB/C mice; 7 d after intramuscular injection
  average radiation intensity: 117462
293T cells [2]; LNP formulation of Fluc-mRNA, 24 hours, CCK-8
  Cell survival rate (%): 82.10%
293T cells [2]; difference of survival rates, comparator ALC-0315
  cell survival rate higher than ALC-0315: 31.07% and ~30%
293T cells [2]; difference of survival rates, comparator HHMA
  cell survival rate higher than HHMA: 15.63% and ~15%
293T cells [2]; difference of survival rates, comparator Lipofectamine 3000
  cell survival rate higher than Lipofectamine 3000: 57.09%
293T cells [2]; difference of survival rates, comparator SM-102
  cell survival rate higher than SM-102: 12.65% and ~12%
293T cells [2]; difference of survival rates, comparator YK-301
  cell survival rate higher than YK-301: 29.14%
293T cells [2]; difference of survival rates, comparator YK-302
  cell survival rate higher than YK-302: 65.67% and ~65% and ~50%
293T cells [2]; difference of survival rates, comparator YK-303
  cell survival rate higher than YK-303: 18.78%
293T cells [2]; difference of survival rates, comparator YK-304
  cell survival rate higher than YK-304: 47.94%
293T cells [2]; difference of survival rates, comparator YK-306
  cell survival rate higher than YK-306: 39.91%
293T cells [2]; difference of survival rates, comparator YK-307
  cell survival rate higher than YK-307: 20.96%
293T cells [2]; difference of survival rates, comparator YK-308
  cell survival rate higher than YK-308: 11.11%
293T cells [2]; difference of survival rates, comparator YK-309
  cell survival rate higher than YK-309: 50.49%
293T cells [2]; difference of survival rates, comparator YK-311
  cell survival rate higher than YK-311: 12.04%
293T cells [2]; difference of survival rates, comparator YK-313
  cell survival rate higher than YK-313: 13.17%
293T cells [2]; difference of survival rates, comparator YK-314
  cell survival rate higher than YK-314: 14.22%
293T cells [2]; difference of survival rates, comparator YK-315
  cell survival rate higher than YK-315: 10.82%
293T cells [2]; difference of survival rates, comparator YK-316
  cell survival rate higher than YK-316: 11.57%
293T cells [2]; difference of survival rates, comparator YK-317
  cell survival rate higher than YK-317: 22.92% and ~20%
293T cells [2]; difference of survival rates, comparator YK-320
  cell survival rate higher than YK-320: 11.03%
293T cells [2]; difference of survival rates, comparator YK-321
  cell survival rate higher than YK-321: 9.76%
293T cells [2]; difference of survival rates, comparator compound 21
  cell survival rate higher than compound 21: 11.89%
293T cells [2]; difference of survival rates, comparator compound 23
  cell survival rate higher than compound 23: 10.60%
[3]
  PDI (%): 12.4%
  Particle size (nm): 192 nm
liver
  protein expression in the liver: no protein expression in the liver

— US20260007613A1, “LONG-ACTING LOW-TOXICITY NOVEL CATIONIC LIPID COMPOUNDS AND COMPOSITION THEREOF” (BEIJING YOUCAREKECHUANG PHARMACEUTICAL TECHNOLOGY CO., LTD., priority 2023, published 2026)
